Laboratory results taken from patent US20240391940A1, “FUSED RING-CONTAINING COMPOUND, APPLICATION THEREOF, AND COMPOSITION CONTAINING SAME” (GenEros Biopharma Ltd., priority 2020, published 2024).
“And” between values parts separate entries of the source, which are not always exact repeats. Equal entries are not always repeated.

How the values were obtained:
[1] = tested on: IMQ-induced psoriasis mouse model; assay: IMQ-induced psoriasis mouse model (PASI scoring); format: in vivo, Balb/c mice; parameters: key to skin thickening in psoriasis mice (score) / skin redness in psoriasis mice (score) / skin scaling in psoriasis mice (score): 0 = none to 4 = very severe, per sign; conditions: DEX 3 mpk PO QD
Procedure: Method: This experiment used a total of 19 mice. A natural skin observation control (n=1). 2 cm^2 of hair was shaved off the backs of […] on day 0, the stubble was removed with a mild depilatory cream, and the original skin was photographed. 62.5 mg of IMQ was applied to each of the mice. There was a mock group (n=6), a DEX (3 mg/kg, PO., qD) group (n=6), and a GEN1-284s (30 mg/kg, PO, qD) group (n=6). On the day of modeling, administration was performed in a volume of 100 μL/20 g body weight 4 h after IMQ application. The PASI scoring method was used to score the erythema, swelling and scaling on the skin of the mice. The experiment took a total of 6 days. The first day was set to day 0. IMQ application and administration were not performed on day 5. The mice were sacrificed with carbon dioxide at the end of the experiment.
The test animals were anesthetized with isoflurane. 2 cm^2 of hair was shaved off the backs of the mice, and the stubble was removed with a depilatory cream. IMQ application was performed for a total of 5 days, from day 0 to day 4. Scoring and IMQ application were performed every morning. Administration was performed in the afternoon
Desquamation (D): means epidermal cells flake off. The severity scores of skin lesions were as follows: • 0=none; this sign cannot be confirmed by careful observation • 1=mild; this sign can be confirmed but careful observation is required • 2=moderate; this sign is more visible and can be confirmed immediately • 3=severe; this sign is marked. • 4=very severe; this sign is very marked.
Induration I: 0—skin lesions are at the same level as normal skin; • 1—skin lesions are at slightly higher levels than normal skin surface; • 2—lesions moderately stick out and have round or slope-shaped borders; • 3—skin lesions are thick and markedly stick out; • 4—skin lesions are very thick and very markedly stick out.
Erythema E: • 0—no visible erythema; • 1—light red; • 2—red; • 3—dark red; • 4—the red is very dark

[2] = tested on: LPS-induced production of TNF-α; assay: LPS-induced TNF-α production in mice (plasma ELISA); format: in vivo; conditions: Balb/c mice; dexamethasone 3 mpk, LPS 1 mpk i.p. 0.5 h after administration, plasma 2 h after LPS
Procedure: Materials and method: A total of 18 mice were used in this experiment. The mice were divided into a MOCK group (n=6), a dexamethasone group (n=6), and a GEN1-284s 15 mpk group (n=6). LPS (1 mpk) was intraperitoneally injected 0.5 h after administration. The mice were sacrificed 2 h after the LPS injection, and blood samples were taken. The blood samples were left in EDTA-K2 anticoagulant tubes at room temperature for 20 min and centrifuged at 8000 rpm for 10 min. The plasma was separated and cryopreserved at −80° C. before analysis.
LPS (1 mpk) was intraperitoneally injected 0.5 h after administration. The mice were sacrificed 2 h after the LPS injection, and blood samples were taken. The blood samples were left in EDTA-K2 anticoagulant tubes at room temperature for 20 min and centrifuged at 8000 rpm for 10 min. The plasma was separated and cryopreserved at −80° C. before analysis.
The mice were tested for TNF-α level with ELISA kits, and the inhibitory effect of GEN1-284s on the TNF-α level was evaluated.
According to the instructions for use, a standard curve formula (y=0.0038x+0.1206, R^2=0.9956) was obtained and can be used to calculate detection values.

[3] = DAY 1, individual mice, listed as DEX
[4] = DAY 2, individual mice, listed as DEX
[5] = DAY 3, individual mice, listed as DEX
[6] = DAY 4, individual mice, listed as DEX
[7] = DAY 5, individual mice, listed as DEX

C[C@@H]1C[C@H]2[C@@H]3CCC4=CC(=O)C=C[C@]4(C)[C@@]3(F)[C@@H](O)C[C@]2(C)[C@@]1(O)C(=O)CO [dexamethasone, Dexamethasone, reference compound]
overall effect on the skin of psoriasis mice (score) ([1]; DAY 0, individual mice): 0
skin redness in psoriasis mice (score) ([1]; DAY 0, individual mice): 0
skin scaling in psoriasis mice (score) ([1]; DAY 0, individual mice): 0
skin thickening in psoriasis mice (score) ([1]; DAY 0, individual mice): 0
overall effect on the skin of psoriasis mice (score) [1, 3]: 1.167 (2×) and 0.5 and 1.333 (2×) and 0.8333
skin redness in psoriasis mice (score) [1, 3]: 0.6667 (2×) and 0.1667 and 0.3333 and 0.5 (2×)
skin scaling in psoriasis mice (score) [1, 3]: 0.5 and 0.3333 (2×) and 0.8333 (2×) and 0.1667
skin thickening in psoriasis mice (score) [1, 3]: 0 (5×) and 0.5
overall effect on the skin of psoriasis mice (score) [1, 4]: 1.333 and 1 and 0.5 and 0.8333 and 1.667 and 0.6667
skin redness in psoriasis mice (score) [1, 4]: 0.5 (2×) and 0.6667 (2×) and 0.1667 (2×)
skin scaling in psoriasis mice (score) [1, 4]: 0.8333 and 0.3333 and 0 (2×) and 0.6667 and 1
skin thickening in psoriasis mice (score) [1, 4]: 0 (5×) and 0.5
overall effect on the skin of psoriasis mice (score) [1, 5]: 2.5 and 3 and 1 and 2 (2×) and 1.667
skin redness in psoriasis mice (score) [1, 5]: 1.167 and 1 and 0.5 (2×) and 0.3333 and 0.6667
skin scaling in psoriasis mice (score) [1, 5]: 1.333 and 1.5 and 0.5 (2×) and 1 and 1.167
skin thickening in psoriasis mice (score) [1, 5]: 0 (2×) and 0.5 (4×)
overall effect on the skin of psoriasis mice (score) [1, 6]: 2.333 (2×) and 1.5 and 3.5 and 3.667 and 2.667
skin redness in psoriasis mice (score) [1, 6]: 0.6667 and 0.5 (2×) and 1.167 (2×) and 1.667
skin scaling in psoriasis mice (score) [1, 6]: 1.167 and 1 (2×) and 1.833 and 1.333 and 1.5
skin thickening in psoriasis mice (score) [1, 6]: 0.5 (5×) and 0
overall effect on the skin of psoriasis mice (score) [1, 7]: 3.333 and 2.5 and 3.667 and 2.833 (2×) and 3.5
skin redness in psoriasis mice (score) [1, 7]: 1.167 and 1 (2×) and 0.8333 and 0.6667 and 1.5
skin scaling in psoriasis mice (score) [1, 7]: 1.667 (2×) and 1.5 (2×) and 2.333 and 1.333
skin thickening in psoriasis mice (score) [1, 7]: 0.5 (5×) and 0
Inhibition rate against LPS-induced TNF-α [2]: 81%
